The numbers were not newly measured in patent US20190328656A1, “TARGETED DELIVERY OF PROGESTINS AND ESTROGENS VIA VAGINAL RING DEVICES FOR FERTILITY CONTROL AND HRT PRODUCTS” (Evestra, Inc., priority 2018, published 2019), which cites them from elsewhere.

The conditions of data set [1]: elimination from the blood stream.
For data set [2] the following is noted: compared to estriol.

Turning to `C[C@]12CC[C@@H]3c4ccc(O)cc4CC[C@H]3[C@@H]1CC[C@@H]2O` [17-beta estradiol], in data set [1], the half-life result was “around 1 hour”.

Take `C[C@]12CC[C@@H]3c4ccc(O)cc4CC[C@H]3[C@@H]1[C@@H](O)[C@@H](O)[C@@H]2O` [Estetrol]: the estrogenic activity result in data set [2] was “very weak estrogenic activity”.
